Here are results for 2 molecules from PMC10184313, “Inhibition of Thiamine Diphosphate-Dependent Enzymes by Triazole-Based Thiamine Analogues” (ACS Medicinal Chemistry Letters, 2023).

As usually defined, the inhibition is the change of the read-out against control, counted positive when it falls. One may read the Ki as the equilibrium dissociation constant of an inhibitor or competing ligand from its target. Low values mean a stronger hold on the target, high ones a looser hold on the target.

Where two headings read alike, the source gives them in different places.

One series relates to P. falciparum strain 3D7. The series can be described thus: Anti-plasmodial activity assay (SYBR-Safe). It counts as cell-based, Plasmodium falciparum. The method, then:
Next the effects of the thiamine/ThDP analogues on in vitro proliferation of the 3D7 strain of P. falciparum were determined. […] Parasite proliferation was measured by SYBR-Safe assay of parasite DNA.[11],[15]
(§1) Cell-based assays (Results)
(§2) Anti-plasmodial activity assay. This study used human malaria parasite P. falciparum strain 3D7 (chloroquine-sensitive) and the same strain expressing an extra copy of TPK with a GFP-tag ( PfTPK-GFP) generated as previously described. 9 The intraerythrocytic stage of the parasites were maintained essentially as previously described. 10 Compounds were tested at concentrations up to a highest final […]
(§3) were prepared in dimethyl sulfoxide (DMSO) followed by dilution in RPMI 1640 medium in the absence of thiamine or in the presence of 2.97 µM (or 297 µM) thiamine. The final concentration of DMSO that the parasites were exposed to never exceeded 0.05%. Two-fold serial dilutions were then performed, with each concentration tested in triplicate. The assay was performed as described 11 with some modifications. Experiments were initiated with parasites in the ring-stage, a parasitemia level of 0.5% and a haematocrit of 2%. Chloroquine (0.5 µM) was used as the positive control ( i.e. complete inhibition of parasite proliferation), and parasites maintained in the absence of any inhibitor represented 100% parasite proliferation. The final volume in each well was 200 µL. Plates were incubated at 37 °C, under an atmosphere of 96% nitrogen, 3% carbon dioxide and 1% oxygen. Parasite proliferation was measured by performing SYBR-Safe assay. 12 The concentration at which the compound suppresses […]
Excel and analysed by non-linear regression plot using GraphPad Prism. The data were averaged from three independent experiments. […]

A further series has as its target T1, E. coli OGDHc E1 (Escherichia coli, UniProt P0AFG3).
T1 sequence (P0AFG3 1-933): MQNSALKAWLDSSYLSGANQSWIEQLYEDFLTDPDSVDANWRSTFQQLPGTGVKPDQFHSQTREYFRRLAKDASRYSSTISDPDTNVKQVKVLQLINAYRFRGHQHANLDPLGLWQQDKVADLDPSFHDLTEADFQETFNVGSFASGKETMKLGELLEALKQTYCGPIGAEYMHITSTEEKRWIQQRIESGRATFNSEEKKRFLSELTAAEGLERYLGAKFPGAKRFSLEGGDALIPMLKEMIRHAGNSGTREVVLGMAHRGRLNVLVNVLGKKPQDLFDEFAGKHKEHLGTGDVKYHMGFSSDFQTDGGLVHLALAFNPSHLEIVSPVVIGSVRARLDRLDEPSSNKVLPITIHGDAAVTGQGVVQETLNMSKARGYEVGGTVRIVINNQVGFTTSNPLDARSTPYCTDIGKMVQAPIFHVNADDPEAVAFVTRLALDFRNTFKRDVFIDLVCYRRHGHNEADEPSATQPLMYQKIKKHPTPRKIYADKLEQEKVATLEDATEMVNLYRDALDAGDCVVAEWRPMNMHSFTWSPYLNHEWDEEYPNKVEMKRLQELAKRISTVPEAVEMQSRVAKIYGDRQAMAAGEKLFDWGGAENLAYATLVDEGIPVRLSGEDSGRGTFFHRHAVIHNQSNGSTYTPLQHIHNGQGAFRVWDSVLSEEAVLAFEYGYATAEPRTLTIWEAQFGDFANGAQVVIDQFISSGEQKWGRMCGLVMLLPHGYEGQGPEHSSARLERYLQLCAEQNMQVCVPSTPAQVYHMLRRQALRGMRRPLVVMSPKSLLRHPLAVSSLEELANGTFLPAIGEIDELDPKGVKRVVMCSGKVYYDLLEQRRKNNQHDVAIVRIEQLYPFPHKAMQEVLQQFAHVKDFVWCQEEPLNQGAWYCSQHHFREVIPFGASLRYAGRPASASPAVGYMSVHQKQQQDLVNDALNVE
The series can be described thus: E. coli OGDHc E1 inhibitory activity assay (DCPIP reduction). It counts as biochemical. The method, then: E. coli OGDHc E1 inhibitory activity assay. E. coli OGDHc E1 was from our previous work 5 and had been donated by R. Frank. Its activity was determined by monitoring DCPIP reduction at 600 nm using a microplate reader (CLARIOstar) and conducted as described 1,2 with some modifications. The percentage inhibition of compounds against E. coli OGDHc E1 was assayed at a final concentration of 250 µM. The reaction buffer (50 mM KH 2PO4 and 2 mM MgCl 2, pH 7) contained 50 µM ThDP (or 125 µM in the competition assay), 0.5 mM DCPIP, and 6.7 mg/ml E. coli OGDHc E1. The reaction mixture was preincubated at 37 °C for 60 min, then reaction was initiated by adding α-ketoglutarate to a final concentration of 10 mM. To determine the IC 50, ThDP concentration was lowered to 30 µM, and inhibitor concentration was varied (2-1000 µM). Specific activity was calculated using the molar […]
for the PDHc E1 assay. […] 5 […]

Series [1] deals with P. falciparum 3D7 transfected with an empty plasmid. The series can be described thus: Anti-plasmodial activity, 3D7 transfected with an empty plasmid. The settings on record: Plasmodium falciparum, 3D7, read-out: IC50 anti-plasmodial activity, empty plasmid. It counts as cell-based. The method, then: as §1, §2
as §3, with “Plates were incubated at 37 °C, under an atmosphere of 96% nitrogen, 3% carbon dioxide and 1% oxygen.” left out, “assay.” for “assay. 12 The concentration at which the compound suppresses”
(§4) Excel and analysed by non-linear regression plot using GraphPad Prism. […]

The subject of a further series is HFF cells. The series can be described thus: in vitro. Format: cell-based, human. As to conditions: IC50 (thiamine-free) vs HFF cytotoxicity. As for the experimental part:
as §1, §2, §3
(§5) Excel and analysed by non-linear regression plot using GraphPad Prism. The data were averaged from three independent experiments.
(§6) Cytotoxicity assay. This study used HFF cells (human foreskin fibroblasts) as described 13 with some modifications. The HFF cells were seeded in 96-well plates at a density of about 13 x 10^4 cells/mL.
(§7) Plates were incubated at 37 °C in a humidified 5% carbon dioxide incubator for 96 h. A sample of the supernatant (150 µL) was then carefully aspirated from each well and discarded. The plates were then stored at -80 °C. SYBR- Safe assay was used. The plates were thawed, SYBR-Safe lysis solution (150 µL) was added to each well and mixed via pipetting to ensure the HFF cells were detached from the plate and lysed. The plates were then processed as described for the anti-plasmodial assay.

A further series is described as follows: in vitro. The settings on record: human. Format: cell-based, human. As for the experimental part:
as §1, §2, §3, §5, §6, §7

Series [2] concerns P. falciparum 3D7 expressing PfTPK-GFP. Nature of the series: Anti-plasmodial activity, 3D7 expressing PfTPK-GFP. As to conditions: Plasmodium falciparum, 3D7, read-out: IC50 anti-plasmodial activity, PfTPK-GFP. Format: cell-based. The method, then:
as §1, §2
as §3, with “Plates were incubated at 37 °C, under an atmosphere of 96% nitrogen, 3% carbon dioxide and 1% oxygen.” left out, “assay.” for “assay. 12 The concentration at which the compound suppresses”
as §4

[3] abbreviates: Plasmodium falciparum, 3D7, 3D7, [Thiamine] = 2.97 μM, read-out: IC50 of Suppression of P. falciparum proliferation, [Thiamine] = 2.97 μM.
[4] abbreviates: Plasmodium falciparum, 3D7, 3D7, [Thiamine] = 297 μM, read-out: IC50 of Suppression of P. falciparum proliferation, [Thiamine] = 297 μM.
Setting [5] is: Plasmodium falciparum, 3D7, 3D7, thiamine-free medium, read-out: IC50 of Suppression of P. falciparum proliferation, Thiamine-free.
[6] abbreviates: [Compound] = 250 μM, [ThDP] = 50 μM.
The mark [7] stands for this setting: increased ThDP: [Compound] = 250 μM, [ThDP] = 125 μM.

For the molecule `COc1ccc(-c2cn(CCCCc3cn(Cc4cnc(C)nc4N)nn3)nn2)cc1` [Compound 17c], the IC50 in the series with P. falciparum strain 3D7 (setting [3]) is 62 ± 7 µM; in the series with P. falciparum strain 3D7 (setting [4]), 69 ± 9 µM; in the series with P. falciparum strain 3D7 (setting [5]), 44 ± 2 µM; in series [1], 38 ± 7 µM; in series [2] it was 44 ± 9 µM. For the same molecule, the inhibition at 250 µM at E. coli OGDHc E1 (setting [6]) and against E. coli OGDHc E1 (setting [7]) was less than 20% each time. Further, the “Selectivity Index” value in the series with HFF cells was 1.1. For the same molecule, the IC50 at 96 h in “in vitro” was found to be 46 ± 7 µM.
In the case of `Cc1ncc(Cn2cc(CCCC(=O)NO)nn2)c(N)n1` [Compound 24b], in the series on P. falciparum strain 3D7, the “fold more potent than 17c at inhibiting proliferation of the parasites” value is listed as approximately 50 fold. The IC50 with P. falciparum strain 3D7 (3D7, thiamine-free medium, read-out: IC50 of Suppression of P. falciparum proliferation, Thiamine-free) is 0.9 ± 0.1 µM; in the series on P. falciparum strain 3D7 (setting [3]) it was 1.3 ± 0.2 µM; in the series with P. falciparum strain 3D7 (setting [4]), 1.4 ± 0.4 µM; in the series on P. falciparum strain 3D7 (setting [5]) it was 0.9 to 3 µM; against E. coli OGDHc E1 ([ThDP] 30 μM), 20 ± 2 µM; in series [1] it was 1.7 ± 0.3 µM. Besides, the IC50 in series [2] is 2 ± 0.6 µM. The “fold more active than 24c (anti-plasmodial)” value with P. falciparum strain 3D7 (thiamine-free culture medium) stood at 3 fold. The inhibition at 250 µM at E. coli OGDHc E1 (setting [6]) is more than 90%; at E. coli OGDHc E1 (setting [7]), 78 ± 3%. At E. coli OGDHc E1 (determined according to the KM for ThDP), this molecule yielded a Ki of 2.02 µM. The “Selectivity Index” value in the series with HFF cells was 16.7. Moreover, the IC50 at 96 h in the series “in vitro” was 15 ± 3 µM.
